According to patent publication US11299762B2, “Nanoscale motion detector” (Ecole Polytechnique Fédérale de Lausanne (EPFL), priority 2011, dated 2022):

Assays:
[1] = test system: TopoII-supercoiled DNA complexes; experiment: TopoII-supercoiled DNA complexes on AFM cantilever, fluctuation recording; type: biochemical, human; conditions: 0.02 mM ATP, compared to ATP free buffer or AMPPMP solution
Procedure: As mentioned previously, TopoII interacts with DNA to simplify its topology. To record this reaction with our method we deposited TopoII-supercoiled DNA complexes on both sides of an AFM cantilever, as depicted in FIG. 6.
The experiment was performed using an APTES-coated AFM cantilever. The different media injected during experiment are: buffer (50 mM Tris-HCl (pH 8.0), 150 mM NaCl, 10 mM MgCl2 and 0.5 mM dithiothreitol), 0.02 mM. AMPPNP (an ATP analogue) and 0.02 mM ATP. […] Panel B depicts the experimental set-up to follow TopoII-DNA interactions. a) DNA molecule, b) TopoII, c) AFM cantilever, d) laser beam. Panel C evidences the differences in terms of the variance.
Here again the cantilever covered with TopoII-supercoiled DNA complexes was inserted in the analysis chamber and exposed to several consecutive liquid environments: 1) ATP free solution, 2) buffer containing a non functional ATP substitute, referred to as AMPPMP 3) ATP enriched medium. AMPPMP is a non-hydrolysable ATP analogue which inhibits TopoII activity.

human Topoisomerase II = experiment: TopoII adsorbed on AFM cantilever, fluctuation recording (drug affinity detection); type: biochemical
Text: This enzyme requires ATP to modify its 3D conformation and to act on DNA. TopoII is also the preferred target of numerous anticancerous drugs such as aclarubicin. This drug binds to TopoII, freezes its conformation and inhibits its action (15). In the first experiment, TopoII was adsorbed onto both sides of a cantilever. It was than introduced in the analysis chamber of an AFM and its laser beam was collimated on the apex of the cantilever. The reflection of the laser beam, sent to a split photo-detector, allowed detecting the fluctuations of the cantilever as depicted in FIG. 1 and, more in detail, FIG. 3,
The experiment consisted in injecting successively an ATP depleted buffer, an ATP enriched solution and an aclarubicin+ATP rich media in the analysis chamber and by recording the resulting fluctuations of the cantilever.
This experiment was performed using an APTES-coated AFM cantilever. The different buffers injected during experiment are: buffer (50 mM Tris-HCl (pH 8.0), 150 mM NaCl, 10 mM MgCl2, and 0.5 mM dithiothreitol), 0.02 mM ATP and 0.02 mM ATP plus 100 μM aclarubicin.
The media used in this experiment are: buffer (50 mM Tris-HCl (pH 8.0), 150 mM NaCl, 10 mM MgCl2 and 0.5 mM dithiothreitol.), 0.02 mM ATP, 0.2 mM ATP, 2 mM ATP and again buffer.

Escherichia coli = experiment: Antibiotic sensitivity detection, bacteria adsorbed on cantilever; type: cell-based; conditions: FIG. 8
Text: Motile bacteria (Escherichia coli), resistant to kanamycin but sensitive to ampicillin, were adsorbed to both sides of a cantilever. The bacteria were successively exposed to both antibiotics to determine the impact on the bacterial motion/viability (see FIG. 7).
In these experiments the cantilever was introduced in the analysis chamber and exposed to a solution containing bacteria that eventually attached to its surface. The system was then exposed to: 1) nutriment depleted buffer, 2) nutriment solution (Lysogeny broth (LB)), 3) kanamycin-enriched LB solution 4) LB solution 5) ampicillins-enriched LB solution and, finally, 6) LB solution.
The experiment was performed using an APTES-coated AFM cantilever. The different phases of the experiment are depicted: PBS, bacteria in PBS, bacteria in LB, exposure to kanamycin, washing with LB, exposure to ampicillin, washing with LB.

Staphylococcus aureus = experiment: Antibiotic sensitivity detection, non-motile bacteria on cantilever; type: cell-based; conditions: exposure to ampicillin in LB; FIG. 10
Text: Later on, similar experiments were repeated using non-motile bacteria (Staphylococcus aureus) susceptible to ampicillin. […] The results of the cantilever motion RMS are depicted in FIG. 10. In this experiment an APTES-coated AFM cantilever was used. The different phases of the experiment are depicted: PBS, bacteria in PBS, bacteria in LB and exposure to ampicillin.

Q: With `Nc1ncnc2c1ncn2[C@@H]1O[C@H](COP(=O)(O)OP(=O)(O)OP(=O)(O)O)[C@@H](O)[C@H]1O` [ATP] as the compound, how does the cantilever fluctuation variance [1] read?
A: The cantilever fluctuation variance was “significant increase”.

Q: And the “variance of the cantilever fluctuations” value (human Topoisomerase II; 0.02 mM ATP, compared to ATP depleted buffer or aclarubicin, FIG. 4)?
A: The value was “significantly higher”.

Q: What about the “conformational changes induced on TopoII (cantilever fluctuation variance)” value (human Topoisomerase II; 0.02 mM, 0.2 mM, 2 mM ATP, FIG. 5) of the same compound?
A: The value was “dependent on its concentration”.

Q: `CC[C@@]1(O)C[C@H](O[C@H]2C[C@H](N(C)C)[C@H](O[C@H]3C[C@H](O)[C@H](O[C@H]4CCC(=O)[C@H](C)O4)[C@H](C)O3)[C@H](C)O2)c2c(cc3c(c2O)C(=O)c2c(O)cccc2C3=O)[C@H]1C(=O)OC` [aclarubicin] was tested. Which “TopoII conformational state (cantilever fluctuation)” value (human Topoisomerase II; 0.02 mM ATP plus 100 μM aclarubicin, FIG. 4) did it give?
A: The value was “again in equilibrium”.

Q: For `CC1(C)S[C@@H]2[C@H](NC(=O)[C@H](N)c3ccccc3)C(=O)N2[C@H]1C(=O)O` [ampicillin], which “bacterial motion (cantilever fluctuations)” value (Escherichia coli; antibiotic-enriched LB solution, E. coli resistant to kanamycin, sensitive to ampicillin) is on record?
A: The value was “dramatically decreased”.

Q: And the “bacterial motion after washing with LB solution” value (Escherichia coli; step 6, LB solution after ampicillin exposure)?
A: Its value is “remained at the same value”.

Q: And the “internal movements of bacteria (cantilever motion)” value (Staphylococcus aureus)?
A: Its value is “decreased dramatically”.
